Data taken from ChEMBL document CHEMBL1201862, “PubChem BioAssay data set” (2004).
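All cell lines were grown in 96-well plates and treated with compound for 48 hours. GI50: concentration for 50% inhibition of growth.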 The source made the active and inactive calls. Rule as the data show it: active = GI50 up to about 1.1 µM and inactive = higher.

Experiments:
Assay in all cases: inhibition of tumour cell growth, NCI panel, 48 h
EKVX = system: EKVX
BT-549 = system: BT-549
Hs-578T = system: Hs-578T
SR = system: SR
NCI-H522 = system: NCI-H522
LOX IMVI = system: LOX IMVI
MDA-MB-231 = system: MDA-MB-231
HOP-92 = system: HOP-92
NCI-H23 = system: NCI-H23
RXF 393 = system: RXF 393
RPMI-8226 = system: RPMI-8226
UO-31 = system: UO-31
OVCAR-8 = system: OVCAR-8
SK-OV-3 = system: SK-OV-3
A549 = system: A549
SF-268 = system: SF-268
HCT-15 = system: HCT-15
NCI/ADR-RES = system: NCI/ADR-RES
MDA-MB-435 = system: MDA-MB-435
KM12 = system: KM12

| Compound | GI50 (EKVX) | GI50 (BT-549) | GI50 (Hs-578T) | GI50 (SR) | GI50 (NCI-H522) | GI50 (LOX IMVI) | GI50 (MDA-MB-231) | GI50 (HOP-92) | GI50 (NCI-H23) | GI50 (RXF 393) | GI50 (RPMI-8226) | GI50 (UO-31) | GI50 (OVCAR-8) | GI50 (SK-OV-3) | GI50 (A549) | GI50 (SF-268) | GI50 (HCT-15) [µM] | GI50 (NCI/ADR-RES) | GI50 (MDA-MB-435) | GI50 (KM12) |
| --- | --- | --- | --- | --- | --- | --- | --- | --- | --- | --- | --- | --- | --- | --- | --- | --- | --- | --- | --- | --- |
| Cn1c(-c2ccccc2)c2cc3nc4ccccc4nc3cc2c1-c1ccccc1 | 31 µM (inactive) | 21.6 µM (inactive) | 10.6 µM (inactive) | 4.56 µM (inactive) | 15.2 µM (inactive) | 14 µM (inactive) | 24.2 µM (inactive) | 25.3 µM (inactive) | 7.14 µM (inactive) | 22.3 µM (inactive) | 12.1 µM (inactive) | 22.5 µM (inactive) | 22.1 µM (inactive) | 21.6 µM (inactive) | 3.94 µM (inactive) | 19 µM (inactive) | 4.65 | 23.2 µM (inactive) | 5.79 µM (inactive) | 11.6 µM (inactive) |
| C/C(=N\N)C(CN1CCOCC1)C(c1ccccc1)c1c(O)c2ccccc2oc1=O (stereo not given) | 83.6 µM (inactive) | 32.3 µM (inactive) | > 100 µM (inactive) | 46 µM (inactive) | > 52 µM (inactive) | 26.4 µM (inactive) | 91 µM (inactive) | 26.3 µM (inactive) | > 100 µM (inactive) | 3.38 µM (inactive) | > 67.1 µM (inactive) | 44.3 µM (inactive) | > 90.6 µM (inactive) | > 100 µM (inactive) | > 75.2 µM (inactive) | > 100 µM (inactive) | > 100 | 65.9 µM (inactive) | 53.7 µM (inactive) | > 81.1 µM (inactive) |
